# Tested on: Endogenous Huntingtin Protein
# Test: Endogenous Huntingtin Protein Assay (ELISA-based MSD electrochemiluminescence)
# Type: cell-based
# Details: Table 1
# Summary of the method: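 Huntingtin was captured overnight at 4 °C on plates coated with 1 μg/mL MW1 (polyQ-expanded) or MAB2166 antibody and BSA-blocked. Detection used a rabbit monoclonal and then a SULFO-TAG goat anti-rabbit antibody (0.25 μg/mL, 1 h each, room temperature). Signal was read by electrochemiluminescence.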
row,SMILES,IC50
1,"CN1CCC2(CC1)CCN2c1nc2nnc(-c3ccc(-c4cn[nH]c4)cc3O)cc2s1 [Compound 339, 2-[6-(7-methyl-1,7-diazaspiro[3.5]nonan-1-yl)[1,3]thiazolo[4,5-c]pyridazin-3-yl]-5-(1H-pyrazol-4-yl)phenol]",≤ 100 nM
2,"CN1CCC2(CCN(c3nc4nnc(-c5ccc(-c6cn[nH]c6)cc5O)cc4s3)C2)C1 (stereo not drawn) [Compound 340, 2-[6-(7-methyl-2,7-diazaspiro[4.4]nonan-2-yl)[1,3]thiazolo[4.5-c]pyridazin-3-yl]-5-(1H-pyrazol-4-yl)phenol]",1000 to 3000 nM
3,"Oc1cc(-c2c[nH]nc2F)ccc1-c1cc2sc(N3CC4(CCNCC4)C3)nc2nn1 [Compound 341, 2-[6-(2,7-diazaspiro[3.5]nonan-2-yl)[1,3]thiazolo[4,5-c]pyridazin-3-yl]-5-(3-fluoro-1H-pyrazol-4-yl)phenol]",500 to 1000 nM
4,"Oc1cc(-c2cn[nH]c2)ccc1-c1cc2sc(N3CC[C@H]4CNCC[C@H]43)nc2nn1 [Compound 344, 2-{6-[(3aS,7aR)-octahydro-1H-pyrrolo[3,2-c]pyridin-1-yl][1,3]thiazolo[4,5-c]pyridazin-3-yl]-5-(1H-pyrazol-4-yl)phenol]",≤ 100 nM
5,"CN[C@H]1CC[C@@H](N(C)c2nc3nnc(-c4ccc(-c5cn[nH]c5)cc4O)cc3s2)CC1 [Compound 345, 2-(6-{methyl[(1s,4s)-4-(methylamino)cyclohexyl]amino}[1,3]thiazolo[4,5-c]pyridazin-3-yl)-5-(1H-pyrazol-4-yl)phenol]",100 to 500 nM
6,"CN1CC[C@@H]2[C@@H](CCN2c2nc3nnc(-c4ccc(-c5cn[nH]c5)cc4O)cc3s2)C1 [Compound 347, 2-{6-[(3aS,7aR)-5-methyloctahydro-1H-pyrrolo[3,2-c]pyridin-1-yl][1,3]thiazolo[4,5-c]pyridazin-3-yl}-5-(1H-pyrazol-4-yl)phenol]",1000 to 3000 nM
7,"CN(C)[C@H]1CC[C@H](N(C)c2nc3nnc(-c4ccc(-c5cn[nH]c5)cc4O)cc3s2)CC1 [Compound 351, 2-(6-{[(1r,4r)-4-(dimethylamino)cyclohexyl](methyl)amino][1,3]thiazolo[4,5-c]pyridazin-3-yl)-5-(1H-pyrazol-4-yl)phenol]",1000 to 3000 nM
8,"CN(c1nc2nnc(-c3ccc(-c4cn[nH]c4)cc3O)cc2s1)C1CCNCC1(C)C (stereo not drawn) [Compound 355, 2-{6-[(3,3-dimethylpiperidin-4-yl)(methyl)amino][1,3]thiazolo[4,5-c]pyridazin-3-yl}-5-(1H-pyrazol-4-yl)phenol]",≤ 100 nM
9,"CN(c1nc2nnc(-c3ccc(-c4cn[nH]c4)cc3O)cc2s1)[C@H]1CCNC[C@H]1F [Compound 358, 2-(6-{[(3R,4S)-3-fluoropiperidin-4-yl](methyl)amino}[1,3]thiazolo[4,5-c]pyridazin-3-yl)-5-(1H-pyrazol-4-yl)phenol]",500 to 1000 nM
10,"Cc1nc2c(C)cc(-c3cc(F)c4nc([C@H]5C[C@@H](C)N[C@@H](C)C5)sc4c3)nc2o1 [Compound 359, 5-{2-[(2R,4r,6S)-2,6-dimethylpiperidin-4-yl]-4-fluoro-1,3-benzothiazol-6-yl}-2,7-dimethyl[1,3]oxazolo[5,4-b]pyridine]",≤ 100 nM

# Results, then the compound that gave them:
row,IC50,SMILES
1,500 to 1000 nM,"CC1(C)C=C(c2cc3sc(-c4ccc(-c5cn[nH]c5)cc4O)nc3cn2)CC(C)(C)N1 [Compound 337, 5-(1H-pyrazol-4-yl)-2-[6-(2,2,6,6-tetramethyl-1,2,3,6-tetrahydropyridin-4-yl)[1,3]thiazolo[4,5-c]pyridin-2-yl]phenol]"
2,500 to 1000 nM,"Oc1cc(-c2cn[nH]c2)ccc1-c1cc2sc(N3CC4(CCCNC4)C3)nc2nn1 [Compound 338, 2-[6-(2,6-diazaspiro[3.5]nonan-2-yl)[1,3]thiazolo[4,5-c]pyridazin-3-yl]-5-(1H-pyrazol-4-yl)phenol]"
3,100 to 500 nM,"CN1C[C@H](Nc2nc3nnc(-c4ccc(-c5cn[nH]c5)cc4O)cc3s2)[C@@H](F)C1 [Compound 342, 2-(6-{[(3S,4S)-4-fluoro-1-methylpyrrolidin-3-yl]amino}[1,3]thiazolo[4,5-c]pyridazin-3-yl)-5-(1H-pyrazol-4-yl)phenol]"
4,100 to 500 nM,"CN1CC(N(C)c2nc3nnc(-c4ccc(-c5cn[nH]c5)cc4O)cc3s2)C1 [Compound 343, 2-{6-[methyl(1-methylazetidin-3-yl)amino][1,3]thiazolo[4,5-c]pyridazin-3-yl}-5-(1H-pyrazol-4-yl)phenol]"
5,100 to 500 nM,"CN(c1nc2nnc(-c3ccc(-c4cn[nH]c4)cc3O)cc2s1)[C@@H]1CNC[C@@H]1F [Compound 346, 2-(6-{[(3R,4S)-4-fluoropyrrolidin-3-yl](methyl)amino}[1,3]thiazolo[4,5-c]pyridazin-3-yl)-5-(1H-pyrazol-4-yl)phenol]"
6,100 to 500 nM,"CN(c1nc2nnc(-c3ccc(-c4cn[nH]c4)cc3O)cc2s1)[C@@H]1CCCNC1 [Compound 348, 2-(6-{methyl[(3R)-piperidin-3-yl]amino}[1,3]thiazolo[4,5-c]pyridazin-3-yl)-5-(1H-pyrazol-4-yl)phenol]"
7,≤ 100 nM,"CN(c1nc2nnc(-c3ccc(-c4cn[nH]c4)cc3O)cc2s1)[C@H]1CCCNC1 [Compound 349, 2-(6-{methyl[(3S)-piperidin-3-yl]amino}[1,3]thiazolo[4,5-c]pyridazin-3-yl)-5-(1H-pyrazol-4-yl)phenol]"
8,100 to 500 nM,"CNC1CC(N(C)c2nc3nnc(-c4ccc(-c5cn[nH]c5)cc4O)cc3s2)C1 (stereo not drawn) [Compound 350, 2-(6-{methyl[3-(methylamino)cyclobutyl]amino}[1,3]thiazolo[4,5-c]pyridazin-3-yl)-5-(1H-pyrazol-4-yl)phenol]"
9,≤ 100 nM,"CN1CCC[C@H](N(C)c2nc3nnc(-c4ccc(-c5cn[nH]c5)cc4O)cc3s2)C1 [Compound 352, 2-(6-{methyl[(3S)-1-methylpiperidin-3-yl]amino}[1,3]thiazolo[4,5-c]pyridazin-3-yl)-5-(1H-pyrazol-4-yl)phenol]"
10,100 to 500 nM,"CN(c1nc2nnc(-c3ccc(-c4cn[nH]c4)cc3O)cc2s1)C1CNC1 [Compound 353, 2-{6-[(azetidin-3-yl)(methyl)amino][1,3]thiazolo[4,5-c]pyridazin-3-yl}-5-(1H-pyrazol-4-yl)phenol]"
11,≤ 100 nM,"Oc1cc(-c2cn[nH]c2)ccc1-c1cc2sc(N3CCC34CCNCC4)nc2nn1 [Compound 354, 2-[6-(1,7-diazaspiro[3.5]nonan-1-yl)[1,3]thiazolo[4,5-c]pyridazin-3-yl]-5-(1H-pyrazol-4-yl)phenol]"
12,100 to 500 nM,"CN(c1nc2nnc(-c3ccc(-c4cn[nH]c4)cc3O)cc2s1)C1CC2(CNC2)C1 [Compound 356, 2-{6-[(2-azaspiro[3.3]heptan-6-yl)(methyl)amino][1,3]thiazolo[4,5-c]pyridazin-3-yl}-5-(1H-pyrazol-4-yl)phenol]"
13,100 to 500 nM,"Oc1cc(-c2cn[nH]c2)ccc1-c1cc2sc(NC3CCNCC3)nc2nn1 [Compound 357, 2-{6-[(piperidin-4-yl)amino][1,3]thiazolo[4,5-c]pyridazin-3-yl)-5-(1H-pyrazol-4-yl)phenol]"
14,100 to 500 nM,"CN[C@H]1C[C@@H](N(C)c2nc3nnc(-c4ccc(-c5cn[nH]c5)cc4O)cc3s2)C1 [Compound 361, 2-(6-{methyl[(1s,3s)-3-(methylamino)cyclobutyl]amino}[1,3]thiazolo[4,5-c]pyridazin-3-yl)-5-(1H-pyrazol-4-yl)phenol]"

# Source: patent US12139499B2, “Heteroaryl compounds for treating Huntington's disease” (PTC THERAPEUTICS, INC., priority 2018, dated 2024)
